# Measurements published in ChEMBL document CHEMBL1149145, “Synthesis and selective inhibitory activity of 1-acetyl-3,5-diphenyl-4,5-dihydro-(1H)-pyrazole derivatives against monoamine oxidase” (J Med Chem, 2004).
# Columns and labels:
# [1] = target: Amine oxidase [flavin-containing] A (Bos taurus) (UniProt P21398); test: Inhibition of bovine monoamine oxidase A
# [2] = target: Monoamine oxidase (Bos taurus); test: Inhibition of bovine monoamine oxidase
# [3] = target: Amine oxidase [flavin-containing] B (Bos taurus) (UniProt P56560); test: Inhibition of bovine monoamine oxidase B
# [4] = target: Amine oxidase [flavin-containing] B (Bos taurus) (UniProt P56560); test: Binding affinity was evaluated against bovine monoamino oxidase B
# [5] = target: Amine oxidase [flavin-containing] A (Bos taurus) (UniProt P21398); test: Binding affinity was evaluated against bovine monoamino oxidase A
# Chain of Amine oxidase [flavin-containing] B (Bos taurus) (P56560 whole entry, looked up): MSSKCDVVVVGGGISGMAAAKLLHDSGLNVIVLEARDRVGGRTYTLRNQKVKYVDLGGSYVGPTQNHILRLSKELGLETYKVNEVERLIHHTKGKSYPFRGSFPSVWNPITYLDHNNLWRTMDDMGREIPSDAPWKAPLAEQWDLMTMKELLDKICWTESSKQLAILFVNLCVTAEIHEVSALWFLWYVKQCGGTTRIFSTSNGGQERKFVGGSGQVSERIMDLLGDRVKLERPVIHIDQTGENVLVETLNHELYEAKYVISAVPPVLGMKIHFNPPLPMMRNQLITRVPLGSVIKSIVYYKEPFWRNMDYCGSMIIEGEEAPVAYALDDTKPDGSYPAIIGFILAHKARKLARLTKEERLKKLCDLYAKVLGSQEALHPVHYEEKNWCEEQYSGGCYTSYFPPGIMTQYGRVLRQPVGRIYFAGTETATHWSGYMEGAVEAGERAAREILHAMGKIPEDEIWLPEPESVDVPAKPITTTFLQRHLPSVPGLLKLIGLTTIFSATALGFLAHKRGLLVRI
structure (smiles),measurement,setting,value
COc1ccc(C2CC(c3ccc(O)cc3O)=NN2C(C)=O)cc1 (stereo not drawn),IC50,[1],0.009 µM
same,IC50,[2],10 µM
same,IC50,[3],83 µM
CC(=O)N1N=C(c2ccc(O)cc2)CC1c1ccc(C)cc1 (stereo not drawn),IC50,[1],0.1 µM
same,IC50,[2],0.2 µM
same,IC50,[3],30 µM
CC(=O)N1N=C(c2ccc(O)cc2)CC1c1cccc(Cl)c1 (stereo not drawn),IC50,[1],0.01 µM
same,IC50,[2],12 µM
same,IC50,[3],25 µM
CC(=O)N1N=C(c2ccc(O)cc2)CC1c1cccc(C)c1 (stereo not drawn),IC50,[1],0.008 µM
same,IC50,[2],9.5 µM
same,IC50,[3],19 µM
CC(=O)N1N=C(c2ccc(O)cc2O)CC1c1ccc(Cl)cc1 (stereo not drawn),IC50,[1],0.01 µM
same,IC50,[2],20 µM
same,IC50,[3],120 µM
CC(=O)N1N=C(c2ccc(O)cc2O)CC1c1ccc(C)cc1 (stereo not drawn),IC50,[1],0.009 µM
same,IC50,[2],9.5 µM
same,IC50,[3],42 µM
CC(=O)N1N=C(c2ccc(O)cc2)CC1c1ccccc1Cl (stereo not drawn),IC50,[1],0.0086 µM
same,IC50,[2],50 µM
same,IC50,[3],89 µM
COc1ccc(C2CC(c3ccc(O)cc3)=NN2C(C)=O)c(OC)c1 (stereo not drawn),IC50,[1],0.01 µM
same,IC50,[2],10 µM
same,IC50,[3],20 µM
COc1ccc(C2CC(c3ccc(O)cc3)=NN2C(C)=O)cc1 (stereo not drawn),IC50,[1],0.009 µM
same,IC50,[2],3.6 µM
same,IC50,[3],7.2 µM
CC(=O)N1N=C(c2ccc(O)cc2)CC1c1ccc(Cl)cc1 (stereo not drawn),IC50,[1],0.1 µM
same,IC50,[2],40 µM
same,IC50,[3],40 µM
"COc1ccccc1C1CC(c2ccc(O)cc2O)=NN1C(C)=O (single isomer, unassigned; (+))",Ki,[4],270 µM
same,Ki,[5],0.007 µM
"COc1ccccc1C1CC(c2ccc(O)cc2)=NN1C(C)=O (single isomer, unassigned; (-))",Ki,[4],330 µM
same,Ki,[5],0.002 µM
"COc1ccccc1C1CC(c2ccc(O)cc2O)=NN1C(C)=O (single isomer, unassigned; (-))",Ki,[4],320 µM
same,Ki,[5],0.004 µM
COc1ccccc1C1CC(c2ccc(O)cc2)=NN1C(C)=O (stereo in doubt; 6),IC50,[1],0.0088 µM
same,IC50,[2],30 µM
same,Ki,[4],760 µM
same,Ki,[5],0.009 µM
same,IC50,[3],100 µM
COc1ccccc1C1CC(c2ccc(O)cc2O)=NN1C(C)=O (stereo in doubt; 11),IC50,[1],0.008 µM
same,IC50,[2],40 µM
same,Ki,[4],600 µM
same,Ki,[5],0.008 µM
same,IC50,[3],130 µM
COc1ccccc1C1CC(c2ccc(O)cc2)=NN1C(C)=O (stereo in doubt; (+)-6),Ki,[4],1000 µM
same,Ki,[5],0.006 µM
